{"source": "patent US3965109A", "about": "“Certain aryl amino pyridines” (priority 1971, dated 1976)", "key": {"Lettuce": {"system": "Lettuce", "assay": "Herbicidal test, pre- and post-emergence", "assay_type": "in vivo", "details": "10 lb/acre (11.2 kg/ha); scale 0 (no effect) to 3 (complete kill)"}, "Erwinia carotovora": {"system": "Erwinia carotovora", "assay": "Antibacterial agar test (B4)", "assay_type": "cell-based", "details": "50 ppm; 5 days"}, "[1]": {"system": "Phaedon cochleariae (mustard beetles)", "assay": "Pest toxicity test", "assay_type": "in vivo", "details": "in vivo"}, "Tomato": {"system": "Tomato", "assay": "Herbicidal test, pre- and post-emergence", "assay_type": "in vivo", "details": "10 lb/acre (11.2 kg/ha); scale 0 (no effect) to 3 (complete kill)"}, "Streptomyces scabies": {"system": "Streptomyces scabies", "assay": "Antibacterial agar test (B7)", "assay_type": "cell-based", "details": "50 ppm; 5 days"}, "[2]": {"system": "Venturia inaequalis (apple)", "assay": "Fungicidal test against foliar disease G (foliage spray plus soil drench)", "assay_type": "in vivo", "details": "100 ppm spray and drench; 21 days", "procedure": "This Example illustrates the fungicidal properties of compounds used as active ingredients in the compositions of the invention. The compounds were tested against a wide variety of foliar fungal diseases of plants. In the test, a composition comprising an aqueous solution or suspension of the test compound was sprayed on to the foliage or uninfected plants; the soil in which the plants were growing was also drenched with the composition. The compositions used for spraying and drencing contained 100 parts per million (ppm.) of the test compound except where otherwise stated in the table of results below. After spraying and drenching, the plants were then exposed to infection with the diseases it was desired to control, along with control plants not treated with the compound. After a period of days, depending upon the particular disease, the extent of the disease was visually assessed, as a percentage of the disease established upon the control plants which had not been treated with the compound under test, according to the grading scheme below\nIn Table 2 below the names of the disease is given in the first column, and in the second column is given the time which elapsed between exposing the plants to infection and assessing the amount of disease."}, "Xanthomonas malvacearum": {"system": "Xanthomonas malvacearum", "assay": "Antibacterial agar test (B3)", "assay_type": "cell-based", "details": "50 ppm; 5 days", "method_in_brief": "(§1)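 Bacterial growth on nutrient agar containing 50 ppm final test compound (added from an acetone solution or suspension) was scored 5 days after multipoint inoculation, using graded ratings. Plates were dried overnight before inoculation.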"}, "Xanthomonas oryzae": {"system": "Xanthomonas oryzae", "assay_type": "cell-based", "details": "50 ppm; 5 days"}, "Rice": {"system": "Rice", "assay": "Further herbicidal test, various rates", "assay_type": "in vivo", "details": "5 lb/acre; scale 0 to 5 (complete kill)"}, "Onion": {"system": "Onion", "assay": "Further herbicidal test, various rates", "assay_type": "in vivo", "details": "5 lb/acre; scale 0 to 5 (complete kill)"}, "Sugar beet": {"system": "Sugar beet", "assay": "Further herbicidal test, various rates", "assay_type": "in vivo", "details": "5 lb/acre; scale 0 to 5 (complete kill)"}, "Aphis fabae": {"system": "Aphis fabae", "assay": "Pest toxicity test", "assay_type": "in vivo", "details": "0.1% by weight; broad bean; 2 days"}, "Carrot": {"system": "Carrot", "assay": "Further herbicidal test, various rates", "assay_type": "in vivo", "details": "5 lb/acre; scale 0 to 5 (complete kill)"}, "Megoura viceae": {"system": "Megoura viceae", "assay": "Pest toxicity test", "assay_type": "in vivo", "details": "0.1% by weight; broad bean; 2 days"}, "[3]": {"system": "Aedes aegypti (mosquito larvae)", "assay": "Pest toxicity test", "assay_type": "in vivo", "details": "0.01% by weight; water; 1 day"}, "[4]": {"system": "Tetranychus telarius (red spider mites, adults)", "assay": "Pest toxicity test", "assay_type": "in vivo", "details": "0.1% by weight; French bean; 3 days"}, "[5]": {"system": "Corynebacterium michiganense", "assay": "Antibacterial agar test (B2)", "assay_type": "cell-based", "details": "50 ppm; 5 days", "method_in_brief": "as §1"}, "[6]": {"system": "larvae of the blowfly (Lucilia serrata)", "assay": "Insecticidal test on blowfly larvae on treated filter paper", "assay_type": "in vivo", "parameters": "key: 5 represents inseccticidal activity equal to that of the known insecticide; 6 represents activity 10 times that of the standard", "details": "scale of 1 to 6; filter paper with horse serum"}, "[7]": {"system": "Aedes aegypti (mosquito adults)", "assay": "Pest toxicity test", "assay_type": "in vivo", "details": "0.01% by weight; plywood; 1 day"}, "[8]": {"system": "Pieris brassicae (cabbage white caterpillars)", "assay": "Pest toxicity test", "assay_type": "in vivo", "details": "0.1% by weight, 2 days"}, "Oat": {"system": "Oat", "assay": "Further herbicidal test, various rates", "assay_type": "in vivo", "details": "5 lb/acre; scale 0 to 5 (complete kill)"}, "Maize": {"system": "Maize", "assay": "Herbicidal test, pre- and post-emergence", "assay_type": "in vivo", "details": "10 lb/acre (11.2 kg/ha); scale 0 (no effect) to 3 (complete kill)"}, "Wheat": {"system": "Wheat", "assay": "Herbicidal test, pre- and post-emergence", "assay_type": "in vivo", "details": "10 lb/acre (11.2 kg/ha); scale 0 (no effect) to 3 (complete kill)"}, "Pea": {"system": "Pea", "assay": "Further herbicidal test, various rates", "assay_type": "in vivo", "details": "5 lb/acre; scale 0 to 5 (complete kill)"}, "[9]": {"system": "Agrobacterium tumifaciens", "assay": "Antibacterial agar test (B1)", "assay_type": "cell-based", "details": "50 ppm; 5 days"}, "Kale": {"system": "Kale", "assay": "Further herbicidal test, various rates", "assay_type": "in vivo", "details": "5 lb/acre; scale 0 to 5 (complete kill)"}, "[10]": {"system": "Musca domestica (houseflies)", "assay": "Pest toxicity test, contact test", "assay_type": "in vivo", "details": "0.1% by weight; milk/sugar; 2 days; flies sprayed directly"}, "[11]": {"system": "Plutella maculipennis (diamond back moth larvae)", "assay": "Pest toxicity test", "assay_type": "in vivo", "details": "in vivo"}, "Pseudomonas syringae": {"system": "Pseudomonas syringae", "assay": "Antibacterial agar test (B6)", "assay_type": "cell-based", "details": "50 ppm; 5 days"}, "[12]": {"system": "Tetranychus telarius (red spider mites, eggs)", "assay": "Pest toxicity test", "assay_type": "in vivo", "details": "0.1% by weight; French bean; 3 days"}, "Barley": {"system": "Barley", "assay": "Further herbicidal test, various rates", "assay_type": "in vivo", "details": "5 lb/acre; scale 0 to 5 (complete kill)"}, "[13]": {"system": "Puccinia recondita (wheat)", "assay": "Fungicidal test against foliar disease A (foliage spray plus soil drench)", "assay_type": "in vivo", "details": "100 ppm spray and drench; 10 days"}, "[14]": {"system": "Agriolimax reticulatus (slugs)", "assay": "Molluscicidal activity test", "assay_type": "in vivo, Agriolimax reticulatus (Mull)", "details": "pellet with 4% by weight; 6 days; 10°C", "method_in_brief": "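Slugs were starved for 24 hours, then housed two per dish, in duplicate, under high humidity at 10°C. They fed on pellets dried to contain 4% w/w of test compound. Mortality was scored on day 6.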"}, "[15]": {"system": "Meloidogyne incognita (nematodes)", "assay": "Pest toxicity test", "assay_type": "in vivo", "details": "0.01% by weight; water; 1 day"}, "Uncinula necator (vine)": {"system": "Uncinula necator (vine)", "assay": "Fungicidal test against foliar disease D (foliage spray plus soil drench)", "assay_type": "in vivo", "details": "100 ppm spray and drench; 10 days"}, "[16]": {"system": "Phytophthora infestans (tomato)", "assay_type": "in vivo", "details": "100 ppm spray and drench; 3 days"}, "[17]": {"system": "Piricularia oryzae (rice)", "assay_type": "in vivo", "details": "100 ppm spray and drench; 7 days"}, "[18]": {"system": "Plasmopara viticola (vine)", "assay": "Fungicidal test against foliar disease C (foliage spray plus soil drench)", "assay_type": "in vivo", "details": "100 ppm spray and drench; 10 days"}}, "data": [{"smiles": "N#Cc1c(F)c(F)c(Nc2c(Cl)c(F)nc(F)c2Cl)c(F)c1F", "note": "[Compound 19, 4(4-Cyano-2,3,5,6-tetrafluoroanilino)-3,5-dichloro-2,6-difluoropyridine]", "values": [{"measurement": "Damage to plants, post-emergence", "setting": "Lettuce", "value": 3}, {"measurement": "Damage to plants, pre-emergence", "setting": "Lettuce", "value": 3}, {"measurement": "Antibacterial activity grading B4", "setting": "Erwinia carotovora", "value": "3 (0 to 5)"}, {"measurement": "Mortality grading (kill)", "setting": "[1]", "value": "0 (key: O represents less than 30% kill; 1 represents 30 - 49% kill; 2 represents 60 - 90% kill; 3 represents over 90% kill; C indicates a chemosterilant effect.; A indicates an antifeeding effect.)"}, {"measurement": "Damage to plants, post-emergence", "setting": "Tomato", "value": 3}, {"measurement": "Damage to plants, pre-emergence", "setting": "Tomato", "value": 3}, {"measurement": "Antibacterial activity grading B7", "setting": "Streptomyces scabies", "value": "3 (0 to 5)"}, {"measurement": "Amount of disease grading, disease G", "setting": "[2]", "value": "3 (0 to 5)"}, {"measurement": "Antibacterial activity grading B3", "setting": "Xanthomonas malvacearum", "value": "3 (0 to 5)"}, {"measurement": "Antibacterial activity grading B5", "setting": "Xanthomonas oryzae", "value": "3 (0 to 5)"}, {"measurement": "Damage to plants, post-emergence", "setting": "Rice", "value": 2}, {"measurement": "Damage to plants, post-emergence", "setting": "Onion", "value": 1}, {"measurement": "Damage to plants, post-emergence", "setting": "Sugar beet", "value": 2}, {"measurement": "Mortality grading (kill)", "setting": "Aphis fabae", "value": "3 (3 represents over 90% kill)"}, {"measurement": "Damage to plants, post-emergence", "setting": "Carrot", "value": 0}, {"measurement": "Mortality grading (kill)", "setting": "Megoura viceae", "value": "3 (3 represents over 90% kill)"}, {"measurement": "Mortality grading (kill)", "setting": "[3]", "value": "3 (3 represents over 90% kill)"}, {"measurement": "Mortality grading (kill)", "setting": "[4]", "value": "3 (3 represents over 90% kill)"}, {"measurement": "Antibacterial activity grading B2", "setting": "[5]", "value": "3 (0 to 5)"}, {"measurement": "Activity relative to lindane", "setting": "[6]", "value": 5}, {"measurement": "Mortality grading (kill)", "setting": "[7]", "value": "3 (3 represents over 90% kill)"}, {"measurement": "Mortality grading (kill)", "setting": "[8]", "value": "2 (2 represents 60 - 90% kill)"}, {"measurement": "Damage to plants, post-emergence", "setting": "Oat", "value": 0}, {"measurement": "Damage to plants, post-emergence", "setting": "Maize", "value": 1}, {"measurement": "Damage to plants, pre-emergence", "setting": "Maize", "value": 3}, {"measurement": "Damage to plants, post-emergence", "setting": "Wheat", "value": 2}, {"measurement": "Damage to plants, pre-emergence", "setting": "Wheat", "value": 3}, {"measurement": "Damage to plants, post-emergence", "setting": "Pea", "value": 0}, {"measurement": "Antibacterial activity grading B1", "setting": "[9]", "value": "3 (0 to 5)"}, {"measurement": "Damage to plants, post-emergence", "setting": "Kale", "value": 3}, {"measurement": "Mortality grading (kill), contact test", "setting": "[10]", "value": "3 (3 represents over 90% kill)"}, {"measurement": "Mortality grading (kill)", "setting": "[11]", "value": "0 (key: O represents less than 30% kill; 1 represents 30 - 49% kill; 2 represents 60 - 90% kill; 3 represents over 90% kill; C indicates a chemosterilant effect.; A indicates an antifeeding effect.)"}, {"measurement": "Antibacterial activity grading B6", "setting": "Pseudomonas syringae", "value": "3 (0 to 5)"}, {"measurement": "Mortality grading (kill)", "setting": "[12]", "value": "3 (3 represents over 90% kill)"}, {"measurement": "Damage to plants, post-emergence", "setting": "Barley", "value": 2}]}, {"smiles": "O=[N+]([O-])c1cc([N+](=O)[O-])c2ccccc2c1Nc1c(Cl)c(F)nc(F)c1Cl", "note": "[Compound 25, 3,5-Dichloro-2,6-difluoro-4(2,4-dinitro-1-naphthylamino) pyridine]", "values": [{"measurement": "Mortality grading (kill)", "setting": "[1]", "value": "2 (key: O represents less than 30% kill; 1 represents 30 - 49% kill; 2 represents 60 - 90% kill; 3 represents over 90% kill; C indicates a chemosterilant effect.; A indicates an antifeeding effect.)"}, {"measurement": "Amount of disease grading, disease A (Table 4)", "setting": "[13]", "value": "2 (6 to 25)"}, {"measurement": "% Kill of slugs", "setting": "[14]", "value": 50, "unit": "%"}, {"measurement": "Mortality grading (kill)", "setting": "[15]", "value": "3 (3 represents over 90% kill)"}, {"measurement": "Amount of disease grading, disease D (Table 4)", "setting": "Uncinula necator (vine)", "value": "3 (0 to 5)"}, {"measurement": "Amount of disease grading, disease B (Table 4)", "setting": "[16]", "value": "3 (0 to 5)"}, {"measurement": "Mortality grading (kill)", "setting": "Aphis fabae", "value": "0 (O represents less than 30% kill)"}, {"measurement": "Mortality grading (kill)", "setting": "Megoura viceae", "value": "0 (O represents less than 30% kill)"}, {"measurement": "Amount of disease grading, disease E (Table 4)", "setting": "[17]", "value": "0 (61 to 100)"}, {"measurement": "Amount of disease grading, disease C (Table 4)", "setting": "[18]", "value": "3 (0 to 5)"}, {"measurement": "Mortality grading (kill)", "setting": "[3]", "value": "3 (3 represents over 90% kill)"}, {"measurement": "Mortality grading (kill)", "setting": "[4]", "value": "0 (O represents less than 30% kill)"}, {"measurement": "Activity relative to lindane", "setting": "[6]", "value": 5}, {"measurement": "Mortality grading (kill)", "setting": "[7]", "value": "0 (O represents less than 30% kill)"}, {"measurement": "Mortality grading (kill)", "setting": "[8]", "value": "3 (3 represents over 90% kill)"}, {"measurement": "Mortality grading (kill), contact test", "setting": "[10]", "value": "0 (O represents less than 30% kill)"}, {"measurement": "Mortality grading (kill)", "setting": "[11]", "value": "0 (key: O represents less than 30% kill; 1 represents 30 - 49% kill; 2 represents 60 - 90% kill; 3 represents over 90% kill; C indicates a chemosterilant effect.; A indicates an antifeeding effect.)"}, {"measurement": "Mortality grading (kill)", "setting": "[12]", "value": "2 (2 represents 60 - 90% kill)"}]}]}
